Laboratory results: US5238962A, “Benzamide derivatives” (Hoffmann-La Roche Inc., priority 1983, dated 1993)

Columns and labels:
[1] = toxicity (LD50, p.o. in mice); settings: mouse, in vivo, po
[2] = target: T1, monoamine oxidase (MAO) (Rattus norvegicus, UniProt P19643); assay: MAO inhibiting activity in homogenates of brain and liver of rats after oral administration (phenethylamine as substrate); type: in vivo; settings: 2 h, p.o. in rats, killed two hours after administration, homogenates of the brain and the liver, phenethylamine 2.10^-5 mol.1^-1 as substrate
T1 construct: from tissue; host or cells: rat brain and liver homogenates
T1 sequence (P19643 1-520): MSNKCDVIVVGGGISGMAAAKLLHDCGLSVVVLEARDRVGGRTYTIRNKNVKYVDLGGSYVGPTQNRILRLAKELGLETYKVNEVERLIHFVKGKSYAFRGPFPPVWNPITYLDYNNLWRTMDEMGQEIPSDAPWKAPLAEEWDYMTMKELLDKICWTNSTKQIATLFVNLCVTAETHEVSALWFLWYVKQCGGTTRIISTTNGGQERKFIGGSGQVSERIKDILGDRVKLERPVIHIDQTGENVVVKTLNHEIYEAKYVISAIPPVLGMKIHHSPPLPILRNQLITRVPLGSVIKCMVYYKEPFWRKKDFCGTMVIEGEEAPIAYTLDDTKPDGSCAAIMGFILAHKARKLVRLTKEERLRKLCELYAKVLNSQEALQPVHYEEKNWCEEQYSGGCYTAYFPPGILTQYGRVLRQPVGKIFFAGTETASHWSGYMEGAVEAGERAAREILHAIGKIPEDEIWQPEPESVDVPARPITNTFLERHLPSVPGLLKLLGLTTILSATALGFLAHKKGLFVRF
Method: The MAO inhibiting activity of the compounds of formula I and their pharmaceutically acceptable addition salts can be determined using standard methods. Thus, the substances to be tested were administered orally to rats. Two hours thereafter the animals were killed and the MAO inhibiting activity was measured in homogenates of the brain and the liver according to the method described in Biochem. Pharmacol. 12 (1963) 1439-1441, but using phenethylamine (2.10^-5 mol. 1^-1) in place of tyramine as the substrate.

With `NCCNC(=O)c1ccc(F)cc1` [N-(2-Aminoethyl)-p-fluorobenzamide] the LD50 [1] was > 5000 mg/kg and the ED50 [2] was 4 µmol/kg.

Work on `NCCNC(=O)c1ccc(Cl)cc1` [N-(2-Aminoethyl)-p-chlorobenzamide] yielded an LD50 [1] of 1000 to 2000 mg/kg.

With `NCCNC(=O)c1ccc(Cl)c(Cl)c1` [N-(2-Aminoethyl)-3,4-dichlorobenzamide, N-(2-aminoethyl)-3,4-dichlorobenzamide] the LD50 [1] was 1000 to 2000 mg/kg and the ED50 [2] was 10.3 µmol/kg.

In the case of `NCCNC(=O)c1ccccc1` [N-(2-Aminoethyl)benzamide], the LD50 [1] is reported as > 5000 mg/kg and the ED50 [2] is reported as 20 µmol/kg.

`NCCNC(=O)c1ccc(Br)cc1` [N-(2-Aminoethyl)-p-bromobenzamide] gave an LD50 [1] of 500 to 1000 mg/kg and an ED50 [2] of 4 µmol/kg.

Compound `NCCNC(=O)c1ccc(Cl)cc1Cl` [N-(2-Aminoethyl)-2,4-dichlorobenzamide, N-(2-aminoethyl)-2,4-dichlorobenzamide] has an LD50 [1] of 625 to 1250 mg/kg and an ED50 [2] of 1.5 µmol/kg.
